In patent US9192568B2, “Formulations comprising jorumycin-, renieramycin-, safracin- or saframycin-related compounds for treating proliferative diseases” (Pharma Mar, S.A., priority 2005, dated 2015):

What was measured:
[1] = system: xenografted human cell lines in mice, such as breast and prostate; conditions: several xenografted human cell lines in mice; cited from earlier work
[2] = system: solid and non-solid tumor cell lines; conditions: cited from earlier work
Aqueous solubility = assay type: physicochemical
Description: These characteristics challenge the ordinary skills and conventional methodologies in this technology, particularly when it comes to the preparation of formulations of these compounds that are to be readily used for medical purposes. Such uses preferably rely on formulations whose characteristics include one or more of the following: biocompatibility, stability under ambient conditions, or under conditions that are as near to ambient conditions as possible, with a shelf life that is as long as possible, and easy reconstitutability to form reconstituted solutions that are as stable under ambient, or near ambient conditions, for as long as possible.

SMILES | in vivo activity [1] | in vitro activity [2] | aqueous solubility (Aqueous solubility)
COc1c(C)cc2c(c1O)[C@@H]1[C@@H]3Cc4c(OC(C)=O)c(C)c5c(c4[C@H](CNC(=O)/C=C/c4cccc(C(F)(F)F)c4)N3[C@@H](O)[C@H](C2)N1C)OCO5 [PM00104] | significant in vivo activity | significant in vitro activity | limited aqueous solubility
COc1c(C)cc2c(c1O)[C@@H]1[C@@H]3Cc4c(OC(C)=O)c(C)c5c(c4[C@H](COC(=O)/C=C/c4ccccc4)N3[C@@H](O)[C@H](C2)N1C)OCO5 [PM00121] |  |  | limited aqueous solubility
